Entries after “also recorded” stand apart in the source; their conditions may differ.

One series relates to MT-4 cells. As to conditions: 100 ng/ml and concentrations up to 1,000-fold higher.
The next series concerns IIIB strain of HIV-1. The series is described as follows: Anti-HIV effect: protection of MT-4 T lymphocytes from HIV-caused cell death (XTT assay). It counts as cell-based. To be noted: MT-4, HIV-1 IIIB, 100 mcg-1 ng per ml, 5-7 days. The procedure:
Viability=100%×[(ODT)-(ODD)]/[(ODM)-(ODD)]
Where ODT is optical density values of culture wells treated with test peptides; ODM optical density of mock-infected cells; ODD light absorbance values of untreated cells dead from exposure to HIV.
The serial ten-fold dilutions (100 mcg-1 ng per ml) of 6 different synthetic peptides representing N-terminal and core region of hCG were tested for their effect on HIV replication (FIG. 1). […] In these experiments the viability of MT4 was determined after 5-7 days of continuous presence of the virus and hCG peptide fragment in the target cell culture.
(In general: Formazan colour is commonly taken as a measure of viable cells.)

Description for MT-4 cells: MT-4 T lymphocytes (5×10^4 cells/ml) were seeded in 96well plates and exposed to IIIB strain of HIV-1 (at MOI equal to 100 infectious doses) in the presence of ten-fold, serial dilutions of hCG peptides (range 100 mcg-1 ng per ml). […] The tests were repeated three times with duplicates for each dilution of an individual peptide. All cultures were grown in RPMI-1640/10% FBS medium supplemented witi L-glutamine and penicillin/streptomycin. The culture plates were kept in a humidified incubator with 5% CO2 at 37° C. […] This difference in the survival pattern, indicative of the antiviral activity, was quantitated by tetrazolium salt XTT assay. This assay is based on the rationale that the viability of MT-4 correlates directly with the activity of mitochondrial hydrogenases converting XTT into optically dense formazan dye. […] At the appropriate time 1 mg/ml of XTT (Sigma, St Louis, Mo.) was nixed with 1% w/v phenazine methosulfate (Aldrich, Milwaukee, Wis.) and 20 mcl of the mixture was added to the wells for 4 hours. The optical density of formazan was then determined in a plate reader at 450 nm with reference filter at 620 nm. The proportion of surviving MT-4 cells treated with hCG peptides was calculated as a function of the viability of mock-infected cells in relation to positive control wells containing untreated cells dead from exposure to HIV.

On to `CC[C@H](C)[C@H](NC(=O)[C@@H]1CCCN1C(=O)[C@@H](NC(=O)[C@H](CC(=O)O)NC(=O)[C@H](CO)NC(=O)[C@@H]1CCCN1C(=O)CNC(=O)[C@@H]1CCCN1C(=O)[C@H](CC(C)C)NC(=O)[C@H](CCCNC(=N)N)NC(=O)[C@H](CO)NC(=O)[C@@H]1CCCN1C(=O)[C@H](CO)NC(=O)[C@@H]1CCCN1C(=O)[C@H](CC(C)C)NC(=O)[C@H](CO)NC(=O)[C@@H]1CCCN1C(=O)[C@@H]1CCCN1C(=O)[C@@H]1CCCN1C(=O)[C@H](C)NC(=O)[C@H](CCCCN)NC(=O)[C@H](CO)NC(=O)[C@H](CO)NC(=O)[C@H](CO)NC(=O)[C@H](CO)NC(=O)[C@H](CC(=O)O)NC(=O)[C@H](CCC(N)=O)NC(=O)[C@H](Cc1ccccc1)NC(=O)[C@H](CCCNC(=N)N)NC(=O)[C@@H]1CCCN1C(=O)[C@H](CC(=O)O)NC(=O)[C@H](CC(=O)O)NC(=O)[C@H](CS)NC(=O)[C@@H](NC(=O)[C@H](CC(C)C)NC(=O)[C@@H]1CCCN1C(=O)[C@@H](N)Cc1c[nH]cn1)[C@@H](C)O)[C@@H](C)O)C(=O)N[C@@H](CC(C)C)C(=O)N1CCC[C@H]1C(=O)N[C@@H](CCC(N)=O)C(=O)O` [CTP of hCG], for which the “toxicity to cells employed in the assay” value in the series with MT-4 cells is “not toxic”.
On to “C100 GGPKDHPLTC110 DD (CGGPKDHPLTCDD) [compound 7]”, for which the “anti-HIV effect (in words)” value with IIIB strain of HIV-1 was “active; also recorded: restricted effect”.
Still for that read-out and setting: to “K20 EGCPVCITVN30 TT (KEGCPVCITVNTT) [peptide #1]” belongs “active at nanogram doses”.

The values above are taken from patent US6331610A, “Method for treating AIDS and HIV infection using select peptides from the beta subunit of human chorionic gonadotropin” (priority 1997, dated 2001).
